According to ChEMBL document CHEMBL4819039, “Taxonomy Driven Discovery of Polyketides from Aspergillus californicus” (2021):
In brackets after ≈: the same amount, converted by molar mass. Activity calls are given as the source filed them. The calls are words filed in the database; no cut-off is given here.

Key:
Klebsiella pneumoniae = experiment: Antibacterial activity against Klebsiella pneumoniae ATCC 700603 assessed as inhibition of bacterial growth; assay type: functional
Staphylococcus aureus [1] = experiment: Antibacterial activity against methicillin-sensitive Staphylococcus aureus ATCC 29213 assessed as inhibition of bacterial growth; assay type: functional
HL-60 = experiment: Cytotoxicity against human HL-60 cells after 72 hrs by CCK-8 assay; assay type: functional, cell-based
MCF7 = experiment: Cytotoxicity against human MCF7 cells after 72 hrs by MTT assay; assay type: functional, cell-based
A2058 = experiment: Cytotoxicity against human A2058 cells after 72 hrs by MTT assay; assay type: functional, cell-based
Staphylococcus aureus [2] = experiment: Antibacterial activity against methicillin-resistance Staphylococcus aureus MB5393 assessed as inhibition of bacterial growth; assay type: functional
Escherichia coli = experiment: Antibacterial activity against Escherichia coli ATCC 25922 assessed as inhibition of bacterial growth; assay type: functional
HepG2 = experiment: Cytotoxicity against human HepG2 cells after 72 hrs by MTT assay; assay type: functional, cell-based
MIA PaCa-2 = experiment: Cytotoxicity against human MIA PaCa-2 cells after 72 hrs by MTT assay; assay type: functional, cell-based
A549 = experiment: Cytotoxicity against human A549 cells after 72 hrs by MTT assay; assay type: functional, cell-based

SMILES | MIC (Klebsiella pneumoniae) [µg/mL] | MIC (Staphylococcus aureus [1]) [µg/mL] | Activity (HL-60) | Activity (MCF7) | Activity (A2058) | MIC (Staphylococcus aureus [2]) [µg/mL] | MIC (Escherichia coli) [µg/mL] | Activity (HepG2) | Activity (MIA PaCa-2) | Activity (A549) | Activity (Klebsiella pneumoniae) | Activity (Escherichia coli)
CCCCC[C@H](O)[C@@H](O)C[C@@H]1OCc2c(O)ccc(CC=C(C)C)c21 | > 64 | > 64 | inactive | inactive | inactive | > 64 | > 64 | inactive | inactive | inactive | – | –
CCCCC/C=C/C=C/c1cccc(O)c1CO | – | 48 (≈ 195 µM) | inactive | inactive | inactive | 48 (≈ 195 µM) | – | inactive | inactive | inactive | inactive | inactive
CCCCCC(=O)[C@@]1(O)C=Cc2c(CC=C(C)C)ccc(O)c2[C@@H]1O | > 64 | > 64 | inactive | inactive | inactive | > 64 | > 64 | inactive | inactive | inactive | – | –
CCCCC[C@H](O)C(=O)C[C@@H]1OC(=O)c2c(O)ccc(CC=C(C)C)c21 | > 64 | > 64 | inactive | inactive | inactive | > 64 | > 64 | inactive | inactive | inactive | – | –
CCCCC[C@H](O)[C@@H](O)C[C@H]1OC(=O)c2c(O)ccc(CC=C(C)C)c21 | > 64 | > 64 | inactive | inactive | inactive | > 64 | > 64 | inactive | inactive | inactive | – | –
CCCCCC(=O)[C@]1(O)C=Cc2c(CC=C(C)C)ccc(O)c2[C@H]1O | > 64 | > 64 | inactive | inactive | inactive | > 64 | > 64 | inactive | inactive | inactive | – | –
CCCCC[C@H](O)C(=O)C[C@H]1OC(=O)c2c(O)ccc(CC=C(C)C)c21 | > 64 | > 64 | inactive | inactive | inactive | > 64 | > 64 | inactive | inactive | inactive | – | –
